According to paper PMC7812727, “Neuropilin 1 and Neuropilin 2 gene invalidation or pharmacological inhibition reveals their relevance for the treatment of metastatic renal cell carcinoma” (Journal of Experimental & Clinical Cancer Research : CR, 2021):

What was measured:
NRP1 (Neuropilin 1) = biological target: T1, NRP1 (Neuropilin 1) (Homo sapiens, UniProt O14786); test: plate-based competitive binding assay: displacement of biotinylated VEGFA from coated recombinant human NRP1 (chemiluminescence); format: biochemical
T1 construct: recombinant human NRP1
Source text: plate-based competitive binding assay: displacement of biotinylated VEGFA from coated recombinant human NRP1 (chemiluminescence) on NRP1 (Neuropilin 1) | NRPa-308 inhibited VEGFA/NRP1 and VEGFA/NRP2 binding in a dose-dependent manner

NRP2 (Neuropilin 2) = biological target: T2, NRP2 (Neuropilin 2) (Homo sapiens, UniProt O60462); test: plate-based competitive binding assay: displacement of biotinylated VEGFA, or of VEGFC, from coated recombinant human NRP2 (chemiluminescence); format: biochemical
T2 construct: recombinant human NRP2
T2 sequence (O60462 21-931): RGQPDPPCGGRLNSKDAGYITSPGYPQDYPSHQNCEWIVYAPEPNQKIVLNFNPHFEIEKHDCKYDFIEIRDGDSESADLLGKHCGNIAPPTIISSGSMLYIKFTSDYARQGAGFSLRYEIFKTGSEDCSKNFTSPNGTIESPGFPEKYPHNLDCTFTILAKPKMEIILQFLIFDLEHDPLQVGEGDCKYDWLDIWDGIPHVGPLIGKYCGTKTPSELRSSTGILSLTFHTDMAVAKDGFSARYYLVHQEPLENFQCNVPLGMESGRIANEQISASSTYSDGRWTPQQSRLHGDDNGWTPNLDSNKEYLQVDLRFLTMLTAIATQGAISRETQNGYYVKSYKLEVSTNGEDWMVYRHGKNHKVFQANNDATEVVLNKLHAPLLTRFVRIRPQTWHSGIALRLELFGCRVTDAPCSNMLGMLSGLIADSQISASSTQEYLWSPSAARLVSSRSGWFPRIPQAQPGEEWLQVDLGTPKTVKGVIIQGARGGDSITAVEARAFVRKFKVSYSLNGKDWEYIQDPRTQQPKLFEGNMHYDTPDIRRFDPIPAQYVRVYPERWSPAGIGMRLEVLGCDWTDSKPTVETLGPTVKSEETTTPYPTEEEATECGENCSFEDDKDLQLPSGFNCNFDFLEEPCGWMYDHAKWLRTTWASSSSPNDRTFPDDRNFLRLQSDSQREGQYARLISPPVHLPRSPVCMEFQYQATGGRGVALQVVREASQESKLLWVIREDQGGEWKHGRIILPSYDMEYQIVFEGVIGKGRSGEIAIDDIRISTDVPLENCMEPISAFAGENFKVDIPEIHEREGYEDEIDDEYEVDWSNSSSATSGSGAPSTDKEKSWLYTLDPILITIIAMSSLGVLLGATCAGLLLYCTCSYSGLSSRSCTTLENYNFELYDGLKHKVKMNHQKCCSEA
Source text: plate-based competitive binding assay: displacement of biotinylated VEGFA, or of VEGFC, from coated recombinant human NRP2 (chemiluminescence) on NRP2 (Neuropilin 2) | NRPa-308 inhibited VEGFA/NRP1 and VEGFA/NRP2 binding in a dose-dependent manner

T1 sequence (O14786 22-923): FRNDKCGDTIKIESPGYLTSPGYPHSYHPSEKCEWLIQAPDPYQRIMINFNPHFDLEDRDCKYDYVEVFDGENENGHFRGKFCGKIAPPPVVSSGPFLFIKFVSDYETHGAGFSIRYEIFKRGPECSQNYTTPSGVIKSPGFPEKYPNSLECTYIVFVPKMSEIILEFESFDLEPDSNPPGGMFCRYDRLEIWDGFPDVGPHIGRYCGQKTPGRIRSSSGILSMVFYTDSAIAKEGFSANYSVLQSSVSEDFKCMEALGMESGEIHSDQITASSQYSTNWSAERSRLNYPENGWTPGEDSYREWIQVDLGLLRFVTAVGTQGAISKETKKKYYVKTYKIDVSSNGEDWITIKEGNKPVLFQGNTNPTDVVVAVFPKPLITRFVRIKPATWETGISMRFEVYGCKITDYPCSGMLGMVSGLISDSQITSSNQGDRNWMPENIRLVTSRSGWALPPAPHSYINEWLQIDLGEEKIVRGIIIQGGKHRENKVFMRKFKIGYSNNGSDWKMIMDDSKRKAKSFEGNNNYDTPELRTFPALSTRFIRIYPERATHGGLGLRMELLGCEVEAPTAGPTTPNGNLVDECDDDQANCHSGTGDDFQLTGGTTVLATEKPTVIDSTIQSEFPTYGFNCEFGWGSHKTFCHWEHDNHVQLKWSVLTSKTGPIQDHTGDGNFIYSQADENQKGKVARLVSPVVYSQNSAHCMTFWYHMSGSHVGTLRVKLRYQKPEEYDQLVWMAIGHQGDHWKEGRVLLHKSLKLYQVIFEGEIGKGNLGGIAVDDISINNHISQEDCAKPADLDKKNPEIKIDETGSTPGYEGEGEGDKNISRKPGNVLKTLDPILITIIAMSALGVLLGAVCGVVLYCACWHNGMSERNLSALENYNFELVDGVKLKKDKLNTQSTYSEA

% maximal inhibition (NRP1 (Neuropilin 1)): ~ 40 % maximal inhibition
% maximal inhibition (NRP2 (Neuropilin 2)): ~ 40 % maximal inhibition
SMILES: CCOc1ccccc1NC(=O)c1ccc(C)c(S(=O)(=O)Nc2ccc(C)cc2)c1 [NRPa-308]
